Assay results: patent US12617790B2, “Mitragynine analogs and uses thereof” (Memorial Sloan-Kettering Cancer Center, priority 2015, dated 2026)
Where two headings read alike, the source gives them in different places.

Legend:
KOR-1 = molecular target: T1, KOR-1 (Mus musculus, UniProt P33534); experiment: Competition binding against 125I-IBNtxA in KOR-1/CHO membranes; settings: 125I-IBNtxA (0.1 nM), CHO membranes, cloned mouse receptor; read-out: Affinity (Ki nM) KOR-1
T1 construct: expressed in transfected cells; host or cells: CHO

DOR-1 = molecular target: T2, DOR-1 (Mus musculus, UniProt P32300); experiment: Competition binding against 125I-IBNtxA in DOR-1/CHO membranes; settings: 125I-IBNtxA (0.1 nM), CHO membranes, cloned mouse receptor; read-out: Affinity (Ki nM) DOR-1
T2 construct: expressed in transfected cells; host or cells: CHO

MOR-1 = molecular target: T3, MOR-1 (Mus musculus, UniProt P42866); experiment: Competition binding against 125I-IBNtxA in MOR-1/CHO membranes
T3 construct: expressed in transfected cells; host or cells: CHO

CC[C@@H]1CN2CC[C@@]3(C(=O)c4c(OC)cccc4N3C)C2C[C@@H]1/C(=C\OC)C(=O)OC (stereo partly drawn) [VM1503, (E)-methyl 2-((1'S,6'S,7'S)-6′-ethyl-4-methoxy-1-methyl-3-oxo-3′,5′,6′,7′,8′,8a′-hexahydro-2′H-spiro[indoline-2,1′-indolizine]-7′-yl)-3-methoxyacrylate]
Ki (KOR-1): > 1000 nM | Ki (DOR-1): > 1000 nM | Ki (MOR-1): 375 nM

CC[C@@H]1CN2CCc3c([nH]c4cccc(-c5ccoc5)c34)[C@@H]2C[C@@H]1/C(=C\OC)C(=O)OC [VM1539]
Ki (KOR-1): 14 nM | Ki (DOR-1): 332 nM | Ki (MOR-1; read-out: Affinity (Ki nM) MOR-1, 125I-IBNtxA (0.1 nM), CHO membranes, cloned mouse receptor): 52 nM

CC[C@@H]1CN2CCc3c([nH]c4cccc(OC)c34)[C@@H]2C[C@@H]1/C(=C\OC)CO [VM1534, (E)-2-((2S,3S,12bS)-3-ethyl-8-methoxy-1,2,3,4,6,7,12,12b-octahydroindolo[2,3-a]quinolizin-2-yl)-3-methoxyprop-2-en-1-ol]
Ki (MOR-1): > 1000 nM

CC[C@@H]1CN2CCc3c(n(Cc4ccccc4)c4cccc(OC)c34)[C@@H]2C[C@@H]1/C(=C\OC)C(=O)OC [VM1533, Methyl (E)-2-((2S,3S,12bS)-12-benzyl-3-ethyl-8-methoxy-1,2,3,4,6,7,12,12b-octahydroindolo[2,3-a]quinolizin-2-yl)-3-methoxyacrylate]
Ki (KOR-1): 395 nM | Ki (DOR-1): > 1000 nM | Ki (MOR-1): 93 nM

COC(=O)CC1CCN2CC[C@@]3(O)C(=Nc4cccc(OC)c43)C2C1 (stereo partly drawn) [VM1531, Methyl 2-((7aS)-7a-hydroxy-8-methoxy-1,2,3,4,6,7,7a,12b-octahydroindolo[2,3-a]quinolizin-2-yl)acetate]
Ki (KOR-1): > 1000 nM | Ki (DOR-1): > 1000 nM | Ki (MOR-1): > 1000 nM

CC[C@@H]1CN2CC[C@@]3(OC)C(=Nc4cccc(OC)c43)[C@@H]2C[C@@H]1/C(=C\OC)C(=O)OC [VM1537, Methyl (E)-2-((2S,3S,7aS,12bS)-3-ethyl-7a,8-dimethoxy-1,2,3,4,6,7,7a,12b-octahydroindolo[2,3-a]quinolizin-2-yl)-3-methoxyacrylate]
Ki (KOR-1): 90 nM | Ki (DOR-1): 997 nM | Ki (MOR-1): 190 nM

CC[C@@H]1CN2CCC3(Nc4ccc(Cl)c(OC)c4C3=O)C2C[C@@H]1/C(=C\OC)C(=O)OC (stereo partly drawn) [VM1516, Methyl (E)-2-((6'S,7'S)-5-chloro-6′-ethyl-4-methoxy-3-oxo-2′,3′,6′,7′,8′,8a′-hexahydro-5′H-spiro[indoline-2,1′-indolizin]-7′-yl)-3-methoxyacrylate]
Ki (KOR-1): 12 nM | Ki (DOR-1): 2.1 nM | Ki (MOR-1): 0.41 nM

CC[C@@H]1CN2CCc3c([nH]c4ccc(-c5ccccc5)c(OC)c34)C2C[C@@H]1/C(=C\OC)C(=O)OC (stereo partly drawn) [VM1521, Methyl (E)-2-((2S,3S)-3-ethyl-9-(phenyl)-8-methoxy-1,2,3,4,6,7,12,12b-octahydroindolo[2,3-a]quinolizin-2-yl)-3-methoxyacrylate]
Ki (KOR-1): 204 nM | Ki (DOR-1): > 1000 nM | Ki (MOR-1): 364 nM

C=C(COC)[C@H]1C[C@H]2c3[nH]c4cccc(OC)c4c3CCN2C[C@H]1CC [VM1535, (2S,3S,12bS)-3-ethyl-8-methoxy-2-(3-methoxyprop-1-en-2-yl)-1,2,3,4,6,7,12,12b-octahydroindolo[2,3-a]quinolizine]
Ki (MOR-1): > 1000 nM

CC[C@@H]1CN2CCc3c([nH]c4cccc(OC)c34)[C@@H]2C[C@@H]1[C@@H](C)COC [VM1536, (2S,3S,12bS)-3-ethyl-8-methoxy-2-((R)-1-methoxypropan-2-yl)-1,2,3,4,6,7,12,12b-octahydroindolo[2,3-a]quinolizine]
Ki (MOR-1): > 1000 nM

CC[C@@H]1CN2CCc3c(n(C)c4cccc(OC)c34)[C@@H]2C[C@@H]1/C(=C\OC)C(=O)OC [VM1541, Methyl (E)-2-((2S,3S,12bS)-3-ethyl-8-methoxy-12-methyl-1,2,3,4,6,7,12,12b-octahydroindolo[2,3-a]quinolizin-2-yl)-3-methoxyacrylate]
Ki (KOR-1): 143 nM | Ki (DOR-1): > 1000 nM | Ki (MOR-1): 163 nM

CC[C@@H]1CN2CC[C@@]3(O)C(=Nc4c(-c5ccoc5)ccc(OC)c43)C2C[C@@H]1/C(=C\OC)C(=O)OC (stereo partly drawn) [VM1524, Methyl (E)-2-((2S,3S,7aS)-3-ethyl-11-(furan-3-yl)-7a-hydroxy-8-methoxy-1,2,3,4,6,7,7a,12b-octahydroindolo[2,3-a]quinolizin-2-yl)-3-methoxyacrylate]
Ki (KOR-1): 338 nM | Ki (DOR-1): > 1000 nM | Ki (MOR-1): 117 nM

CC[C@@H]1CN2CCC3c4c(cccc4OC)NC3[C@@H]2C[C@@H]1/C(=C\OC)C(=O)OC (stereo partly drawn) [VM1542, Methyl (E)-2-((2S,3S,12bS)-3-ethyl-8-methoxy-1,2,3,4,6,7,7a,12,12a,12b-decahydroindolo[2,3-a]quinolizin-2-yl)-3-methoxyacrylate]
Ki (KOR-1): 329 nM | Ki (DOR-1): 374 nM | Ki (MOR-1): 116 nM

CC[C@@H]1CN2CC[C@@]3(C(=O)c4c(OC)cccc4N3Cc3ccccc3)C2C[C@@H]1/C(=C\OC)C(=O)OC (stereo partly drawn) [VM1505, (E)-methyl 2-((1'S,6'S,7'S)-1-benzyl-6′-ethyl-4-methoxy-3-oxo-3′,5′,6′,7′,8′,8a′-hexahydro-2′H-spiro[indoline-2,1′-indolizine]-7′-yl)-3-methoxyacrylate]
Ki (KOR-1): 136 nM | Ki (DOR-1): 258 nM | Ki (MOR-1): 249 nM

CC[C@@H]1CN2CCc3c([nH]c4ccc(Br)c(OC)c34)C2C[C@@H]1/C(=C\OC)C(=O)OC (stereo partly drawn) [VM1517, Methyl (E)-2-((2S,3S)-9-bromo-3-ethyl-8-methoxy-1,2,3,4,6,7,12,12b-octahydroindolo[2,3-a]quinolizin-2-yl)-3-methoxyacrylate]
Ki (KOR-1): 195 nM | Ki (DOR-1): 847 nM | Ki (MOR-1): 104 nM

CC[C@@H]1CN2CCc3c([nH]c4c(-c5ccoc5)ccc(OC)c34)C2C[C@@H]1/C(=C\OC)C(=O)OC (stereo partly drawn) [VM1520, Methyl (E)-2-((2S,3S)-3-ethyl-11-(furan-3-yl)-8-methoxy-1,2,3,4,6,7,12,12b-octahydroindolo[2,3-a]quinolizin-2-yl)-3-methoxyacrylate]
Ki (KOR-1): 185 nM | Ki (DOR-1): 617 nM | Ki (MOR-1): 278 nM

CC[C@@H]1CN2CCc3c([nH]c4ccc(-c5ccoc5)c(OC)c34)C2C[C@@H]1/C(=C\OC)C(=O)OC (stereo partly drawn) [VM1519, Methyl (E)-2-((2S,3S)-3-ethyl-9-(furan-3-yl)-8-methoxy-1,2,3,4,6,7,12,12b-octahydroindolo[2,3-a]quinolizin-2-yl)-3-methoxyacrylate]
Ki (KOR-1): 129 nM | Ki (DOR-1): 653 nM | Ki (MOR-1): 281 nM

CC[C@@H]1CN2CC[C@@]3(O)C(=Nc4ccc(-c5ccoc5)c(OC)c43)C2C[C@@H]1/C(=C\OC)C(=O)OC (stereo partly drawn) [VM1523, Methyl (E)-2-((2S,3S,7aS)-3-ethyl-9-(furan-3-yl)-7a-hydroxy-8-methoxy-1,2,3,4,6,7,7a,12b-octahydroindolo[2,3-a]quinolizin-2-yl)-3-methoxyacrylate]
Ki (KOR-1): 36 nM | Ki (DOR-1): 109 nM | Ki (MOR-1): 36 nM

CC[C@@H]1CN2CC[C@@]3(N4CCCCC4)C(=Nc4cccc(OC)c43)[C@@H]2C[C@@H]1/C(=C\OC)C(=O)OC [VM1526, Methyl (E)-2-((2S,3S,7aS,12bS)-3-ethyl-8-methoxy-7a-(piperidin-1-yl)-1,2,3,4,6,7,7a,12b-octahydroindolo[2,3-a]quinolizin-2-yl)-3-methoxyacrylate]
Ki (KOR-1): 72 nM | Ki (DOR-1): 369 nM | Ki (MOR-1): 247 nM
